{"source": "patent US20200078323A1", "about": "“METHOD OF TREATING OVARIAN CANCER USING ZETA-STAT” (University of South Florida, priority 2018, published 2020)", "key": {"PKC-ζ": {"molecular_target": "T1, PKC-ζ (Homo sapiens, UniProt Q05513)", "T1 construct": "Protein expression of PKC-ζ and RhoA of TOV21G and ES-2 cells when treated for 72 hours with DMSO and ζ-Stat; endogenous in cells; host or cells: TOV21G and ES-2 cells", "T1 sequence (Q05513 1-592)": "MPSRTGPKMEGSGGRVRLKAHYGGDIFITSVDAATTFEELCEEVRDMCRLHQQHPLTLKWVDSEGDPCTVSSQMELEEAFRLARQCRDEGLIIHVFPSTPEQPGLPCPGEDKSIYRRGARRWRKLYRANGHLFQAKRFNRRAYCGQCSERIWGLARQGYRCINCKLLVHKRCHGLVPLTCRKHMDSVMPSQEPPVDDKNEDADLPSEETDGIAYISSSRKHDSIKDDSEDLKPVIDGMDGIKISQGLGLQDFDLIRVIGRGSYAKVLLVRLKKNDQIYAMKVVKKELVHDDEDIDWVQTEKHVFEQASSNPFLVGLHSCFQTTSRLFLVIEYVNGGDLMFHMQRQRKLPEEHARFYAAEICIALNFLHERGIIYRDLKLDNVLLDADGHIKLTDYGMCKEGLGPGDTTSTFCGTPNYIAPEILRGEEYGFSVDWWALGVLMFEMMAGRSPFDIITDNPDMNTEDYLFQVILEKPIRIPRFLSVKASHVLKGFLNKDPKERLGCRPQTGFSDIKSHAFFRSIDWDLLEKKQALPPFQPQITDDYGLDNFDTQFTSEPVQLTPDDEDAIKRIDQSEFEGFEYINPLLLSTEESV", "experiment": "Protein expression of PKC-ζ in TOV21G and ES-2 cells", "format": "cell-based", "details": "protein and genomic studies", "protocol": "(§1) FIGS. 3A-3B. Protein expression of […] and […] of TOV21G and ES-2 cells when treated for 24, 48, and 72 hours with DMSO, ICA-1, and ζ-Stat. (FIG. 3A) TOV21G protein expression levels with treatments and quantified N=3. (FIG. 3B) ES-2 protein expression levels with treatments and quantified N=3.\n(§2) FIGS. 4A-4B. Protein expression of PKC-ζ and RhoA of TOV21G and ES-2 cells when treated for 72 hours with DMSO and ζ-Stat and genomic expression of RhoA in TOV21G. (FIG. 4A) TOV21G and ES-2 protein expression after 72 hours of treatment. (FIG. 4B) TOV21G genomic expression of RhoA with ζ-Stat treatment after 72 hours of treatment."}, "[1]": {"experiment": "Toxicity and body weight in xenograph mice (enzyme panel, body weight)", "format": "in vivo", "protocol": "(§3) FIGS. 5A-5C. In-vivo TOV21G xenographs treated with 1×DPBS (vehicle, N=6) and 20 mg/kg ζ-Stat (N=6) for 30 days. (FIG. 5A) Tumor growth (mm^3) for the control mice and the treatment mice. The graph at the bottom represents the average body weight of the mice throughout the treatment period. (FIG. 5B) Tumors extracted at the endpoint of the experiment. The graph below represents the size of tumors from the treatment group represented as the percentage of the control. (FIG. 5C) Enzyme panel tested after the endpoint of the experiment. The bars represent glucose, BUN, ALT, AST and ALKP levels.\n(§4) Effects of ζ-Stat on athymic mice ovarian xenograph were tested. Twelve athymic female nude mice weighing between 20-25 g and more than 10 weeks of age were used. The mice were divided into two groups after TOV21G cells (CRL-11730, American Type Culture Collection) were implanted (A million cells/mouse flank in 0.2 ml of media). The first group was the control group (n=6), which received 100 μl of DPBS (21-031-CM, Corning Cellgro, VA). The second group (n=6) received 100 μl of 20 mg/kg of ζ-Stat dissolved in DPBS. The tumor volume was calculated using the formula: length×width×width×½. Three days after implantation of the cells, the tumors were treated as of day 0. The treatments were administered every other day subcutaneously intra-tumor and around the tumor site for […]."}, "CCOC cells": {"system": "CCOC cells", "experiment": "Wound healing / cellular invasion of CCOC cells", "format": "cell-based", "from_the_text": "(§5) Ovarian cancer is the most lethal gynecological cancer. […] The most common ovarian cancer diagnosis is epithelial ovarian carcinomas, which constitute for 85-90% of prognosis. Of epithelial ovarian carcinomas, clear cell ovarian carcinoma (CCOC) represents 5% of incidence. CCOC presents unique pathological features and has a high reoccurrence rate after treatment. An overexpression of atypical PKCs (PKC-ζ and PKC-ι/λ) has been observed in various malignant cell lines and is linked to pathways for cellular proliferation and invasion. Ovarian cell lines (TOV21G and ES-2) were treated with the atypical PKC-ζ inhibitor ζ-Stat (8-hydroxynaphthalene-1,3,6-trisulfonic acid) and assayed to determine the effects on proliferation and cellular invasion. […] Tumor growth in athymic female mice is decreased when treated with ζ-Stat and the mouse body weight is maintained. Thus, PKC-ζ is identified herein as a novel target in carcinogenesis and inhibition of this protein decreases the rate of proliferation."}, "PKC-ι": {"molecular_target": "T2, PKC-ι (Homo sapiens, UniProt P41743)", "T2 construct": "endogenous in cells; host or cells: TOV21G and ES-2 cells", "T2 sequence (P41743 1-596)": "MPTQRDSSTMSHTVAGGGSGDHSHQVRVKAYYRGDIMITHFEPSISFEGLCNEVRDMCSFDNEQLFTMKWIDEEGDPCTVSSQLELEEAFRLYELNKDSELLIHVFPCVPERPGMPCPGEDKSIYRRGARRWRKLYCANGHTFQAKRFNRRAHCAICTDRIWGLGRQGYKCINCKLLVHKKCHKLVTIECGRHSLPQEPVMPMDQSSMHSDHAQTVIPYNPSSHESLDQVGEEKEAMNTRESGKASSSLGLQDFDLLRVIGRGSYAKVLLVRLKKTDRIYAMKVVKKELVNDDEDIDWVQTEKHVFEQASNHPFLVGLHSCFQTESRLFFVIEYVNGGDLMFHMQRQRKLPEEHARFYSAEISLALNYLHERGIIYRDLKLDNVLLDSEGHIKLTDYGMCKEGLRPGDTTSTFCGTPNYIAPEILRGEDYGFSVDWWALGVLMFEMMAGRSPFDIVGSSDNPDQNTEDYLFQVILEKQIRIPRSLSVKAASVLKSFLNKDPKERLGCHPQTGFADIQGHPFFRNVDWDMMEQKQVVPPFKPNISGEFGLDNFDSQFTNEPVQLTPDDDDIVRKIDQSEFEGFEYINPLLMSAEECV", "experiment": "Protein expression of PKC-ι in TOV21G and ES-2 cells", "format": "cell-based", "details": "protein and genomic studies", "protocol": "as §1"}, "ES-2 cells": {"system": "ES-2 cells", "experiment": "Proliferation of ES-2 cells treated with ζ-Stat (cellometer count, WST-1)", "format": "cell-based", "details": "24, 48 and 72 hours, control DMSO", "protocol": "(§6) FIGS. 2A-2C. Proliferation curves for ES-2 cells treated with ζ-Stat. ES-2 cells were treated with ζ-Stat for 24, 48, and 72 hours. The control cells were treated with DMSO. (FIG. 2A) Treatments counted on a cellometer. (FIG. 2B) Standard curve for ES-2 cells in WST-1 reagent. (FIG. 2C) Treatments after 72 hours measured using WST-1 reagent.\nas §5"}, "TOV21G xenographs": {"system": "TOV21G xenographs", "experiment": "TOV21G xenograph tumor growth in athymic female nude mice", "format": "in vivo", "details": "20 mg/kg, every other day, subcutaneously intra-tumor and around the tumor site", "protocol": "as §3, §4"}, "TOV21G cells": {"system": "TOV21G cells", "experiment": "Proliferation of TOV21G cells treated with ζ-Stat (cellometer count, WST-1)", "format": "cell-based", "details": "24, 48 and 72 hours, control DMSO", "protocol": "as §6, with “1A-1C.” for “2A-2C.”, “TOV21G” for “ES-2”, “1A)” for “2A)”, “1B)” for “2B)”, “1C)” for “2C)”\nas §5"}, "RhoA": {"system": "RhoA", "experiment": "Protein and genomic expression of RhoA in TOV21G cells", "format": "cell-based", "details": "72 hours", "protocol": "as §2"}}, "note": "Entries after “also recorded” stand apart in the source; their conditions may differ.", "data": [{"molecule": "O=S(=O)(O)c1cc(O)c2c(S(=O)(=O)O)cc(S(=O)(=O)O)cc2c1", "note": "[ζ-Stat, 8-hydroxynaphthalene-1,3,6-trisulfonic acid]", "values": [{"measurement": "expression of PKC-ζ", "setting": "PKC-ζ", "result": "knocks down the expression of PKC-ζ"}, {"measurement": "mouse body weight", "setting": "[1]; athymic female mice treated with ζ-Stat", "result": "maintained"}, {"measurement": "toxic effect", "setting": "[1]; mice, 20 mg/kg, after 30 days of treatment", "result": "did not have a toxic effect"}, {"measurement": "wound healing", "setting": "CCOC cells", "result": "decreased wound healing"}, {"measurement": "expression of PKC-ι", "setting": "PKC-ι", "result": "not the expression of PKC-ι"}, {"measurement": "proliferation of ES-2 cells", "setting": "ES-2 cells", "result": "decreased"}, {"measurement": "tumor growth", "setting": "TOV21G xenographs", "result": "decreased; also recorded: reduced"}, {"measurement": "proliferation of TOV21G cells", "setting": "TOV21G cells", "result": "decreased"}, {"measurement": "expression of RhoA at the genomic level", "setting": "RhoA", "result": "knocks down the expression of RhoA"}, {"measurement": "expression of RhoA at the protein level", "setting": "RhoA", "result": "knocks down the expression of RhoA"}]}]}
